Measurements taken from US20230265151A1, “GIP/GLP1 CO-AGONIST COMPOUNDS” (priority 2020, published 2023).
Like-named read-outs stand apart in the source and are kept apart here. *1 amine or outer side, *2 acyl side, *3 side chain or, on linkers, in order; H or OH if unused. Where a SMILES comes first, the peptide text is derived from it. Side-chain parts run from the residue outwards. [ ]: non-standard residue; d: D form. The star is where a group is joined. αMePhe(2-F) = C[C@](N)(Cc1ccccc1F)C(=O)O; γGlu = O=C(O)[C@H](CCC(=O)[*:2])N[*:1]; C14 diacid = O=C(O)CCCCCCCCCCCCC(=O)*; αMeY = C[C@](N)(Cc1ccc(O)cc1)C(=O)O; 4Pal = N[C@@H](Cc1ccncc1)C(=O)O; αMeL = CC(C)C[C@](C)(N)C(=O)O; Orn = NCCC[C@H](N)C(=O)O; AEEA = NCCOCCOCC(=O)O; Aib = CC(C)(N)C(=O)O

Tests used:
[1] = target: T1, hGCGR (Homo sapiens, UniProt P47871); experiment: Functional cAMP formation (HTRF) in HEK-293 clonal cells expressing hGCGR, 0.1% bovine casein, without or with 1.0% human serum albumin; format: cell-based; conditions: cAMP, 37° C., read-out: hGCGR EC50, nM (SEM, n)
T1 construct: expressed in transfected cells
T1 sequence (P47871 26-477): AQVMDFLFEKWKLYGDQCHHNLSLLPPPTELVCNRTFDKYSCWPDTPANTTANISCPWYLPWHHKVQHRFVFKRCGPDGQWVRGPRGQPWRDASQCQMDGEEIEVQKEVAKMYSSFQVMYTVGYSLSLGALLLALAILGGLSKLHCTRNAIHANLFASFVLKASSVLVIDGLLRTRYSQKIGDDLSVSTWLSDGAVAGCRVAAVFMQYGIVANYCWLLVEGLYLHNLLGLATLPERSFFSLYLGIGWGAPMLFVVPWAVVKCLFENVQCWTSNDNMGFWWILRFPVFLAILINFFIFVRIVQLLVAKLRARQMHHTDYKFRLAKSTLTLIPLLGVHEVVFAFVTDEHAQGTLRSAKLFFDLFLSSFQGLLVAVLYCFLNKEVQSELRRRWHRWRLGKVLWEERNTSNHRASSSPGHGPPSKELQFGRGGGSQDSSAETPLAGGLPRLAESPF
Outline: (§1)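 Readings of the HTRF 665/620 nm ratio, which falls as cAMP rises, were converted to nM cAMP using a standard curve after 30 min peptide exposure at 37° C.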

[2] = target: T2, hGIPR (Homo sapiens, UniProt P48546); experiment: Functional cAMP formation (HTRF) in HEK-293 clonal cells expressing hGIPR, 0.1% bovine casein, without or with 1.0% human serum albumin; format: cell-based; conditions: 37° C.; for Emax: HEK293, cAMP, percent of maximal response to GIP(1-42)NH2, read-out: hGIPR Emax, % ± SEM; for EC50: cAMP, read-out: hGIPR EC50, nM (SEM, n)
T2 construct: expressed in transfected cells
T2 sequence (P48546 22-466): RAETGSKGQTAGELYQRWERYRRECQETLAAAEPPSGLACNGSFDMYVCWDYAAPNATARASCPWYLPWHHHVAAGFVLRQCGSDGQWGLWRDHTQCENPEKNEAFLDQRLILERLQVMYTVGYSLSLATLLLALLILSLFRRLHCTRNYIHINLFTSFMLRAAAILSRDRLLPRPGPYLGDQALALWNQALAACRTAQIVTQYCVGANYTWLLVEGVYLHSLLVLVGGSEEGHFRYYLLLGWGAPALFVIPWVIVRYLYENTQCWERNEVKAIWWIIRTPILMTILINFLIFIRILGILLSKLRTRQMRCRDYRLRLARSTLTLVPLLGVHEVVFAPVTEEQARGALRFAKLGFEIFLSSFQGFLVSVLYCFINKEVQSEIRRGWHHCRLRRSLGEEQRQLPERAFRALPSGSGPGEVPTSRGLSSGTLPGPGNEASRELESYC
Outline: as §1

[3] = target: T3, human Gcg receptor (hGcgR) (Homo sapiens, UniProt P47871); experiment: [125I]-Glucagon binding, SPA with membranes of HEK293 cells expressing hGcgR; conditions: human GcgR; geometric mean (SEM, n); read-out: Binding Affinity Ki, nM (SEM, n) hGCGR
T3 construct: expressed in transfected cells; crude membranes
T3 sequence (P47871 26-477): as the sequence (P47871 26-477) above

[4] = target: hGLP-1R (Homo sapiens, UniProt P43220); experiment: Functional cAMP formation (HTRF) in HEK-293 clonal cells expressing hGLP-1R, 0.1% bovine casein, without or with 1.0% human serum albumin; format: cell-based; set-up: expressed in transfected cells; conditions: 37° C.; for Emax: HEK293, cAMP, percent of maximal response to GLP-1(7-36)NH2, read-out: hGLP-1R Emax, % ± SEM; for EC50: cAMP, read-out: hGLP-1R EC50, nM (SEM, n)
hGLP-1R, sequence (P43220 24-463): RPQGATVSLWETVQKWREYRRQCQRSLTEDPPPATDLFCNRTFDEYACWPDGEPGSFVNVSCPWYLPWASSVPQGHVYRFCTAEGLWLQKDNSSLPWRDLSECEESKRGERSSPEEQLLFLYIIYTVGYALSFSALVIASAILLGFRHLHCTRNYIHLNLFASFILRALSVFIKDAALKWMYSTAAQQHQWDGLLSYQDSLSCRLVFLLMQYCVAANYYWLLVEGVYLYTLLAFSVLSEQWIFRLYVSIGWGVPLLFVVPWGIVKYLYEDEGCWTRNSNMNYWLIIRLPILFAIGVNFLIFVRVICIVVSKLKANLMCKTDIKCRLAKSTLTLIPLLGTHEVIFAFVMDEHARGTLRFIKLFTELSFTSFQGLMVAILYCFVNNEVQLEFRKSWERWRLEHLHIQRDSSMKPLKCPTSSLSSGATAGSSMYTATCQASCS
Outline: as §1

[5] = 0.1% bovine casein (no human serum albumin), geometric mean
[6] = 0.1% bovine casein and 1.0% human serum albumin, geometric mean (SEM, n)
[7] = 0.1% bovine casein and 1.0% human serum albumin
[8] = 0.1% bovine casein, arithmetic mean

Structure (SMILES) | EC50 [1, 5] [nM] | EC50 [1, 6] [nM] | Emax [2, 7] [%] | EC50 [2, 5] [nM] | EC50 [2, 6] [nM] | Ki [3] [nM] | Emax [4, 7] [%] | EC50 [4, 5] [nM] | Emax [4, 8] [%] | EC50 [4, 6] [nM]
CC[C@H](C)[C@H](NC(=O)[C@H](CC(C)C)NC(=O)[C@](C)(Cc1ccc(O)cc1)NC(=O)[C@@H](CCC(=O)O)NC(=O)[C@@H](NC(=O)[C@H](Cc1ccccc1)NC(=O)[C@H](CCC(=O)O)NC(=O)C(C)(C)NC(=O)[C@H](CCC(N)=O)NC(=O)[C@H](C)NC(=O)[C@H](CCCCNC(=O)COCCOCCNC(=O)CC[C@H](NC(=O)CCCCCCCCCCCCC(=O)O)C(=O)O)NC(=O)[C@H](CCCN)NC(=O)[C@H](CC(=O)O)NC(=O)[C@H](CC(C)C)NC(=O)[C@](C)(CC(C)C)NC(=O)[C@@H](NC(=O)C(C)(C)NC(=O)[C@H](Cc1ccncc1)NC(=O)[C@H](CC(=O)O)NC(=O)[C@H](CO)NC(=O)[C@@H](NC(=O)[C@](C)(Cc1ccccc1F)NC(=O)[C@@H](NC(=O)CNC(=O)[C@H](CCC(=O)O)NC(=O)C(C)(C)NC(=O)[C@@H](N)Cc1ccc(O)cc1)[C@@H](C)O)[C@@H](C)O)[C@@H](C)CC)[C@@H](C)CC)C(=O)N[C@@H](CCCCNC(=O)COCCOCCNC(=O)CC[C@H](NC(=O)CCCCCCCCCCCCC(=O)O)C(=O)O)C(=O)NCC(=O)NCC(=O)N1CCC[C@H]1C(=O)N[C@@H](CO)C(=O)N[C@@H](CO)C(=O)NCC(=O)N[C@@H](C)C(=O)N1CCC[C@H]1C(=O)N1CCC[C@H]1C(=O)N1CCC[C@H]1C(=O)N[C@@H](CO)C(N)=O [Example 337] | > 10100 | > 10100 | 86.8 | 0.0151 | 2.65 | > 957 | 100 | 0.444 |  | 
CC[C@H](C)[C@H](NC(=O)[C@H](CC(C)C)NC(=O)[C@](C)(Cc1ccc(O)cc1)NC(=O)[C@@H](CCC(=O)O)NC(=O)[C@@H](NC(=O)[C@H](Cc1ccccc1)NC(=O)[C@H](CCC(=O)O)NC(=O)C(C)(C)NC(=O)[C@H](CCC(N)=O)NC(=O)[C@H](C)NC(=O)[C@H](CCCCNC(=O)COCCOCCNC(=O)CC[C@H](NC(=O)CCCCCCCCCCCCC(=O)O)C(=O)O)NC(=O)[C@H](CCCN)NC(=O)[C@H](CC(=O)O)NC(=O)[C@H](CC(C)C)NC(=O)[C@](C)(CC(C)C)NC(=O)[C@@H](NC(=O)C(C)(C)NC(=O)[C@H](Cc1ccncc1)NC(=O)[C@H](CC(=O)O)NC(=O)[C@H](CO)NC(=O)[C@@H](NC(=O)[C@](C)(Cc1ccccc1F)NC(=O)[C@@H](NC(=O)CNC(=O)[C@H](CCC(=O)O)NC(=O)C(C)(C)NC(=O)[C@@H](N)Cc1ccc(O)cc1)[C@@H](C)O)[C@@H](C)O)[C@@H](C)CC)[C@@H](C)CC)C(=O)N[C@@H](CCC(=O)O)C(=O)NCC(=O)NCC(=O)N1CCC[C@H]1C(=O)N[C@@H](CO)C(=O)N[C@@H](CO)C(=O)NCC(=O)N[C@@H](C)C(=O)N1CCC[C@H]1C(=O)N1CCC[C@H]1C(=O)N1CCC[C@H]1C(=O)N[C@@H](CO)C(=O)N[C@@H](CCCCNC(=O)COCCOCCNC(=O)CC[C@H](NC(=O)CCCCCCCCCCCCC(=O)O)C(=O)O)C(N)=O [Example 338] | > 10100 | > 10100 | 83.9 | 0.0157 | 1.24 | > 957 |  | 0.468 | 109 | 36.6
CC[C@H](C)[C@H](NC(=O)[C@H](CC(C)C)NC(=O)[C@](C)(Cc1ccc(O)cc1)NC(=O)[C@@H](CCC(=O)O)NC(=O)[C@@H](NC(=O)[C@H](Cc1ccccc1)NC(=O)[C@H](CCCCNC(=O)COCCOCCNC(=O)COCCOCCNC(=O)CC[C@H](NC(=O)CCCCCCCCCCCCC(=O)O)C(=O)O)NC(=O)C(C)(C)NC(=O)[C@H](CCC(N)=O)NC(=O)[C@H](C)NC(=O)[C@H](CCC(N)=O)NC(=O)[C@H](CCCN)NC(=O)[C@H](CC(=O)O)NC(=O)[C@H](CC(C)C)NC(=O)[C@](C)(CC(C)C)NC(=O)[C@@H](NC(=O)C(C)(C)NC(=O)[C@H](Cc1ccncc1)NC(=O)[C@H](CC(=O)O)NC(=O)[C@H](CO)NC(=O)[C@@H](NC(=O)[C@](C)(Cc1ccccc1F)NC(=O)[C@@H](NC(=O)CNC(=O)[C@H](CCC(=O)O)NC(=O)C(C)(C)NC(=O)[C@@H](N)Cc1ccc(O)cc1)[C@@H](C)O)[C@@H](C)O)[C@@H](C)CC)[C@@H](C)CC)C(=O)N[C@@H](CCC(=O)O)C(=O)NCC(=O)NCC(=O)N1CCC[C@H]1C(=O)N[C@@H](CO)C(=O)N[C@@H](CO)C(=O)NCC(=O)N[C@@H](C)C(=O)N1CCC[C@H]1C(=O)N1CCC[C@H]1C(=O)N1CCC[C@H]1C(=O)N[C@@H](CO)C(=O)N[C@@H](CCCCNC(=O)COCCOCCNC(=O)COCCOCCNC(=O)CC[C@H](NC(=O)CCCCCCCCCCCCC(=O)O)C(=O)O)C(N)=O [Example 489] (H-Y[Aib]EGT[αMePhe(2-F)]TSD[4Pal][Aib]I[αMeL]LD[Orn]QAQ[Aib]K([AEEA-AEEA-γGlu-C14 diacid])FI[dE][αMeY]LIEGGPSSGAPPPSK([AEEA-AEEA-γGlu-C14 diacid])-NH2) | > 10100 | > 9950 | 79.4 | 0.0131 |  | > 957 | 98.7 | 0.257 | 112 | 13.5
